Data from patent US20240041733A1, “DENTAL CARE COMPOSITION AND METHOD OF PROMOTING CALCIFICATION IN LIVING BODY TISSUE” (KINJIRUSHI CO., LTD., priority 2020, published 2024).
“Also recorded” adds a separate entry of the source.

Experiments:
[1] = system: Human odontoblast (HOB) cells; assay: Evaluation of calcification promoting action using human odontoblasts (Alizarin red and von Kossa staining); type: cell-based; conditions: for calcification promoting action: calcification medium with additive, Alizarin red / von Kossa staining; for relative calcification promoting action (comparison among compounds): compared by concentration of particularly high action and by extent of staining at 50 μM
Description: 1. Cultivation of Human Odontoblast (Human Odontoblast (HOB) Cells)
HOB cells are seeded in a T75 flask and cultivated until confluency was achieved. A culture medium (hereinafter referred to as “regular medium”) was prepared by adding 10% of fetal bovine serum (FBS) (Life Technologies Ltd.; Product No. 10437-028), 1% of penicillin-streptomycin (Life Technologies Ltd.; Product No. 15140-122), 1% of amphotericin B (Sigma-Aldrich, Product No. A2942-100ML) to MEMα (Life Technologies Ltd.; Product No. 12561-049, 12561-056). Cultivation was performed under an environment with a temperature of 37° C. and 5% of CO2.
Then the HOB Cells were seeded on an adherent cell cultivation plate (Sumitomo Bakelite Co., Ltd) such that the cell density per 1 well was 1.78 to 2.56×10^5 cells/mL, and cultivated under the same environment. As the adherent cell cultivation plate, plates having 6 to 96 wells were appropriately used.
Four days later, each culture medium was changed from the regular medium to a calcification medium, or to a culture medium (hereinafter, referred to as “additive containing calcification medium”) prepared by adding additional components shown in the following Table 4 and Table 5 to the calcification medium so as to achieve the concentrations shown in Table 4 and Table 5. The calcification medium is prepared by adding L (+)-ascorbic acid (Wako Pure Chemical Industries, Ltd. (currently Fujifilm Wako Pure Chemical Corporation), Product No. 016-04805) to the aforementioned regular mediums such that the concentration in the calcification medium (that is, the final concentration) was 50 μg/mL, and by adding β-glycerophosphoric acid (Fujifilm Wako Pure Chemical Corporation, Product No. 191-02042) to the aforementioned regular mediums such that the concentration in the calcification medium (that is, the final concentration) is 10 mM.
Then, the cultivation was performed under the environment at 37° C. with 5% of CO2 for 21 or 28 days while exchanging the calcification medium or the additive containing calcification medium twice a week. Then the following staining was performed.
Alizarin red staining and von Kossa staining were performed to evaluate calcification promoting effect.
Each well was washed twice using Dulbecco's phosphate buffered saline (DPBS) (Life Technologies Ltd.; Product No. 14190-144) the amount of which was equal to the specified amount of culture medium in the adherent cell cultivation plate. After removing the DPBS from each well, 4% paraformaldehyde phosphate buffer solution (Fujifilm Wako Pure Chemical Corporation, Product No. 163-20145), the amount of which was equal to a half the amount of the specified amount of the culture medium, was introduced to each well, and each well was left for five minutes at a room temperature.
Then, each well was washed twice using the DPBS the amount of which was equal to the specified amount of the culture medium. After removing the DPBS from each well, Alizarin red staining solution, the amount of which was equal to a half the amount of the specified amount of the culture medium, was introduced to each well, and each well was left for ten minutes. The Alizarin red staining solution was prepared by dissolving a commercially available staining solution (Product name: “Alizarin red S”, Wako Pure Chemical Industries, Ltd. (currently Fujifilm Wako Pure Chemical Corporation), Product No. 011-01192) with ultrapure water (Milli-Q (registered trademark) water), and the pH was adjusted to be within a range from 6.36 to 6.40 using ammonium hydroxide solution.
Each well was then washed five times using the ultrapure water (same as above), the amount of which was equal to the specified amount of the culture medium.
Each well was washed three times using the Dulbecco's phosphate buffered saline (DPBS) (same as above) the amount of which was equal to the specified amount of the culture medium in the adherent cell cultivation plate.

[2] = used in human, dental clinical practices; cited from earlier work

Compound | calcification promoting action ([1]; HOB cells, 21 or 28 days) | relative calcification promoting action (comparison among compounds) [1] | also measured
C[S+]([O-])CCCCN (stereo not shown) [4-MS amine, 4-methylsulfinylbutyl amine, reference compound] | completely no calcification promoting action | – | –
C[S+]([O-])CCCCN=C=S (stereo not shown) [4-MSITC, 4-methylsulfinylbutyl isothiocyanate] | possess calcification promoting action | particularly high | –
CS(=O)(=O)CCCCCCN=C=S [6-MSFITC, 6-methylsulfonylhexyl isothiocyanate] | possess calcification promoting action | particularly high; also recorded: higher calcification promoting action than the 4-MSITC | –
C[S+]([O-])CCCCCCCCN=C=S (stereo not shown) [8-MSITC, 8-methylsulfinyloctyl isothiocyanate] | possess calcification promoting action | particularly high; also recorded: about the same as the calcification promoting action of the 4-MSITC | –
C=CCN=C=S [AITC, allyl isothiocyanate, reference compound] | completely no calcification promoting action | – | calcification action ([1]; range up to 500 μM): not exhibited
S=C=NCCc1ccccc1 [PITC, phenethyl isothiocyanate] | possess calcification promoting action | – | concentration at which particularly high calcification promoting action was observed ([1]; HOB cells, 21 or 28 days, staining): ≥ 500 µM
[Ca+2].[OH-].[OH-] [calcium hydroxide] | – | – | normal duration of time until calcification occurs [2]: three months
CCN[C@H]1C[C@H](C)S(=O)(=O)c2sc(S(N)(=O)=O)cc21 [dorzolamide, reference compound] | – | – | effect on calcification when used with 6-methylsulfinylhexyl isothiocyanate ([1]; dorzolamide, inhibitor of carbonic anhydrase, used with 6-MSITC): calcification is inhibited
